Assay: xn = mol fraction of the nth substance listed

CCOc1ccccc1 + C1CCOC1
viscosity [mPa·s], 101.33 kPa
Conditions	x1 = 0.031	x1 = 0.072	x1 = 0.117	x1 = 0.197	x1 = 0.246	x1 = 0.326	x1 = 0.492	x1 = 0.695	x1 = 0.899
298 K	0.475	0.493	0.515	0.555	0.581	0.627	0.736	0.891	1.067
303 K	0.451	0.468	0.487	0.524	0.547	0.587	0.684	0.824	0.985
308 K	0.431	0.447	0.464	0.496	0.518	0.554	0.642	0.766	0.908

CCCCCCCCn1cc[n+](C)c1.[Cl-] + CCCO
viscosity [mPa·s], 101 kPa
Conditions	x2 = 0.1071	x2 = 0.2407	x2 = 0.3036	x2 = 0.4887
298.15 K	7238	–	912	178.5
313.15 K	–	649	334.5	–

COC(=O)CC(C)=O + CCOC(=O)c1ccccc1
viscosity [mPa·s], 101.33 kPa
Conditions	x1 = 0.0992	x1 = 0.2023	x1 = 0.3004	x1 = 0.399	x1 = 0.4991	x1 = 0.5978	x1 = 0.6966	x1 = 0.7979	x1 = 0.8986
298.15 K	1.834	1.796	1.757	1.729	1.7	1.653	1.633	1.598	1.583
303.15 K	1.661	1.627	1.593	1.571	1.543	1.501	1.484	1.452	1.44
308.15 K	1.514	1.484	1.453	1.434	1.408	1.373	1.356	1.328	1.316

FC(F)(F)C(F)(F)Cl + CC(F)F
Conditions	viscosity [mPa·s]
299.88 K, 101.13 kPa, x1 = 0.69	0.1856

CCCCCCCCn1cc[n+](C)c1.[Cl-] + CCCCCCCC[n+]1ccn(C)c1.F[B-](F)(F)F
101 kPa
Conditions	viscosity [mPa·s]
303.15 K, x1 = 0.2	529.1
308.15 K, x1 = 0.2	381.3
308.15 K, x1 = 0.4	756.6
313.15 K, x1 = 0.4	534.9
318.15 K, x1 = 0.4	386.7
318.15 K, x1 = 0.6	735.5
323.15 K, x1 = 0.6	523

CCCCCC[n+]1ccn(C)c1.O=S(=O)([O-])C(F)(F)F + CC(C)O
Conditions	viscosity [mPa·s]
298.15 K, 100 kPa, x2 = 0.1282	99.47

CCCCCCCCCCCCCCCCCCCl + CCCCCCCCCC
298 K, 101.3 kPa
Conditions	viscosity [mPa·s]
x2 = 0.1067	6.162
x2 = 0.2123	5.192
x2 = 0.3131	4.379
x2 = 0.3996	3.651
x2 = 0.508	2.885
x2 = 0.6105	2.385
x2 = 0.7027	1.919
x2 = 0.8012	1.487
x2 = 0.8979	1.145

CCCCCCCCCCCC(=O)OC + CC(C)C1CCCCC1
viscosity [mPa·s], 100 kPa
Conditions	x2 = 0.1008	x2 = 0.2004	x2 = 0.3006	x2 = 0.4002	x2 = 0.5004	x2 = 0.6003	x2 = 0.7001	x2 = 0.8	x2 = 0.9001
293.15 K	2.862	2.608	2.365	2.139	1.93	1.728	1.546	1.378	1.229
298.15 K	2.558	2.342	2.133	1.937	1.756	1.579	1.419	1.271	1.137
303.15 K	2.303	2.117	1.936	1.765	1.606	1.45	1.308	1.176	1.056
308.15 K	2.088	1.926	1.768	1.617	1.476	1.338	1.211	1.093	0.984
313.15 K	1.904	1.759	1.621	1.488	1.363	1.239	1.126	1.018	0.92
318.15 K	1.743	1.616	1.493	1.375	1.262	1.152	1.05	0.952	0.863
323.15 K	1.602	1.49	1.38	1.274	1.174	1.074	0.981	0.893	0.812

CCCCCCCCCCCC(=O)OC + C1C[C@@H]2[C@H]3CC[C@H](C3)[C@@H]2C1
viscosity [mPa·s], 100 kPa
Conditions	x2 = 0.1012	x2 = 0.2004	x2 = 0.3001	x2 = 0.4004	x2 = 0.5021	x2 = 0.6003	x2 = 0.7003	x2 = 0.8001	x2 = 0.8991
293.15 K	3.062	3.012	2.973	2.927	2.896	2.874	2.864	2.877	2.909
298.15 K	2.73	2.69	2.659	2.625	2.599	2.585	2.58	2.595	2.628
303.15 K	2.454	2.419	2.397	2.369	2.349	2.339	2.338	2.356	2.388
308.15 K	2.218	2.191	2.173	2.152	2.134	2.129	2.13	2.149	2.183
313.15 K	2.018	1.994	1.98	1.963	1.951	1.946	1.949	1.969	2.001
318.15 K	1.844	1.824	1.813	1.799	1.789	1.787	1.791	1.811	1.841
323.15 K	1.693	1.676	1.668	1.656	1.647	1.647	1.652	1.672	1.702

COC(=O)CC(C)=O + CCO
viscosity [mPa·s], 101.3 kPa
Conditions	x1 = 0.1051	x1 = 0.204	x1 = 0.3085	x1 = 0.4046	x1 = 0.507	x1 = 0.607	x1 = 0.7033	x1 = 0.8022	x1 = 0.902
298.15 K	0.96	0.942	0.965	0.995	1.057	1.121	1.202	1.3	1.422
303.15 K	0.879	0.866	0.883	0.913	0.968	1.027	1.099	1.187	1.294
308.15 K	0.806	0.798	0.814	0.841	0.892	0.946	1.011	1.092	1.186
